Measurements reported in patent publication US6972319B1, “Pituitary adenylate cyclase activating peptide (PACAP)receptor 3 (R3) agonists and their pharmacological methods of use” (priority 1999, dated 2005).
Values belong to the compound of their own block, whether it stands above or below them. No end group written: not given here.

Assays:
[1] = molecular target: T1, PACAP-R2 (Homo sapiens, UniProt P32241); assay: Cyclic AMP SPA on CHO cells transfected with PACAP-R2; assay type: cell-based; conditions: cAMP SPA, concentration at which 50% of maximum PACAP27 activity is achieved, NA = no detectable activities, read-out: R2 EC50
T1 construct: expressed in transfected cells; host or cells: CHO cells
T1 sequence (P32241 31-457): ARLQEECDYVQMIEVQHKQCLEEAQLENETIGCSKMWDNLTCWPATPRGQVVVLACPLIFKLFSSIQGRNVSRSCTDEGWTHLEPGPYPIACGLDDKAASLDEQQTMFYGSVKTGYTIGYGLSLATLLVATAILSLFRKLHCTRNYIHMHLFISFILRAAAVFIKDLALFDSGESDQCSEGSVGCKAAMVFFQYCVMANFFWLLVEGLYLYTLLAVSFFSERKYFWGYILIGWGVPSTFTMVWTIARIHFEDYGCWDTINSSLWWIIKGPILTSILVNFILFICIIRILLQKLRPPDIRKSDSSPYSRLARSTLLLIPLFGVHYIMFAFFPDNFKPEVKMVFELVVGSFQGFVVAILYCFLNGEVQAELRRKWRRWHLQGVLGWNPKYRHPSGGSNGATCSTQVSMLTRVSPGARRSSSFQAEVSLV
Protocol: (§1) CHO cells expressing the PACAP R3 were plated in 96-well plates (Costar) at 8×10^4 cell/well and grown at 37 C. for 24 hours in α MEM+nucleosides+glutamine (Giobco BRL), 10% FBS, 100 μg/ml Pen/Strep, 0.3 mg/ml glutamine, 1 mM HEPES, 0.5 mg/ml Geneticin (Gibco BRL). The media was removed and the plates were washed with PBS. The cells were incubated with a peptide, in Hepes-PBS-BSA with 0.4 mg/mlSoybean Trypsin Inhibitor, 0.5 mg/ml Bacitracin, 100 uM IBMX, for 15 min at 37 C. Cyclic AMP in the cell extracts was quantitated using the cAMP SPA direct screening assay system (Amersham Pharmacia Biotech Inc, Piscataway, N.J.,). The peptides shown in Table 3 were assayed for cAMP activity.
(§2) EC50 is defined as the concentration of the polypeptide at which 50% of maximum PACAP27 activity is achieved. “NA” denotes no detectable activities. “R3 Selectivity” is derived from the ratio of EC50 at R2 versus EC50 at R3.

[2] = molecular target: T2, PACAP-R3 (Homo sapiens, UniProt P41587); assay: Cyclic AMP SPA on CHO cells expressing PACAP R3; assay type: cell-based; parameters: expressed in transfected cells; host or cells: CHO cells (Geneticin selection)
T2 sequence (P41587 24-438): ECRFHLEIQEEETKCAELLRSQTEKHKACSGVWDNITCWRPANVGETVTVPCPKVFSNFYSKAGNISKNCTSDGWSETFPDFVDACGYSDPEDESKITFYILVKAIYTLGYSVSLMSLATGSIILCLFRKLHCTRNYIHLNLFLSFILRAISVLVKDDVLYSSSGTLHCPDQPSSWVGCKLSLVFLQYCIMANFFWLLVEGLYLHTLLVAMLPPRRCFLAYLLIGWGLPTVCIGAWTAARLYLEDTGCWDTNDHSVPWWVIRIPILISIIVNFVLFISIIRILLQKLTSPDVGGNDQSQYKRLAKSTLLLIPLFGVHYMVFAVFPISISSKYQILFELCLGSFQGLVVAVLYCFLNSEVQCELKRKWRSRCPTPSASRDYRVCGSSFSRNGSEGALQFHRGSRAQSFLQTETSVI
Protocol: as §1, §2

Compound: CC[C@H](C)[C@H](NC(=O)[C@H](CO)NC(=O)[C@H](CC(N)=O)NC(=O)[C@H](CC(C)C)NC(=O)[C@H](Cc1ccc(O)cc1)NC(=O)[C@H](CCCCN)NC(=O)[C@H](CCCCN)NC(=O)[C@@H](NC(=O)[C@H](C)NC(=O)[C@H](CCSC)NC(=O)[C@H](CCC(N)=O)NC(=O)[C@H](CCCCN)NC(=O)[C@H](CCCNC(=N)N)NC(=O)[C@H](CC(C)C)NC(=O)[C@H](CCCNC(=N)N)NC(=O)[C@@H](NC(=O)[C@H](Cc1ccc(O)cc1)NC(=O)[C@H](CC(N)=O)NC(=O)[C@H](CC(=O)O)NC(=O)[C@@H](NC(=O)[C@H](Cc1ccccc1)NC(=O)[C@@H](NC(=O)[C@H](C)NC(=O)[C@H](CC(=O)O)NC(=O)[C@H](CO)NC(=O)[C@@H](N)Cc1c[nH]cn1)C(C)C)[C@@H](C)O)[C@@H](C)O)C(C)C)C(=O)N[C@@H](CCCCN)C(=O)N[C@@H](CC(N)=O)C(=O)N[C@@H](CCCCN)C(=O)N[C@@H](CCCNC(=N)N)C(=O)N[C@@H](Cc1ccc(O)cc1)C(=O)O [Peptide R3P59]
EC50 [1]: 10 nM
EC50 ([2]; cAMP SPA, CHO cells transfected with PACAP-R3, concentration at which 50% of maximum PACAP27 activity is achieved, NA = no detectable activities, read-out: R3 EC50): 0.15 nM
R3 Selectivity ([2]; ratio of EC50 at R2 versus EC50 at R3): 70

Compound: CC[C@H](C)[C@H](NC(=O)[C@H](CO)NC(=O)[C@H](CC(N)=O)NC(=O)[C@H](CC(C)C)NC(=O)[C@H](Cc1ccc(O)cc1)NC(=O)[C@H](CCCCN)NC(=O)[C@H](CCCCN)NC(=O)[C@H](C)NC(=O)[C@H](C)NC(=O)[C@H](CCSC)NC(=O)[C@H](CCC(N)=O)NC(=O)[C@H](CCCCN)NC(=O)[C@H](CCCNC(=N)N)NC(=O)[C@H](CC(C)C)NC(=O)[C@H](CCCNC(=N)N)NC(=O)[C@@H](NC(=O)[C@H](Cc1ccc(O)cc1)NC(=O)[C@H](CC(N)=O)NC(=O)[C@H](CC(=O)O)NC(=O)[C@@H](NC(=O)[C@H](Cc1ccccc1)NC(=O)[C@@H](NC(=O)[C@H](C)NC(=O)[C@H](CC(=O)O)NC(=O)[C@H](CO)NC(=O)[C@@H](N)Cc1c[nH]cn1)C(C)C)[C@@H](C)O)[C@@H](C)O)C(=O)N[C@@H](CCCCN)C(=O)N[C@@H](CC(N)=O)C(=O)N[C@@H](C)C(=O)N[C@@H](CCCNC(=N)N)C(=O)O [Peptide R3P134]
EC50 [1]: 40 nM

Compound: CC[C@H](C)[C@H](NC(=O)[C@H](CO)NC(=O)[C@H](CC(N)=O)NC(=O)[C@H](CC(C)C)NC(=O)[C@H](Cc1ccc(O)cc1)NC(=O)[C@H](CCCCN)NC(=O)[C@H](CCCCN)NC(=O)[C@H](C)NC(=O)[C@H](C)NC(=O)[C@H](CCSC)NC(=O)[C@H](CCC(N)=O)NC(=O)[C@H](CCCCN)NC(=O)[C@H](CCCNC(=N)N)NC(=O)[C@H](CC(C)C)NC(=O)[C@H](CCCNC(=N)N)NC(=O)[C@@H](NC(=O)[C@H](Cc1ccc(O)cc1)NC(=O)[C@H](CC(N)=O)NC(=O)[C@H](CC(=O)O)NC(=O)[C@@H](NC(=O)[C@H](Cc1ccccc1)NC(=O)[C@@H](NC(=O)[C@H](C)NC(=O)[C@H](CC(=O)O)NC(=O)[C@H](CO)NC(=O)[C@@H](N)Cc1c[nH]cn1)C(C)C)[C@@H](C)O)[C@@H](C)O)C(=O)N[C@@H](CCCCN)C(=O)N[C@@H](CC(N)=O)C(=O)N[C@@H](CCCCN)C(=O)N[C@@H](Cc1c[nH]c2ccccc12)C(=O)O [Peptide R3P170]
EC50 [1]: 20 nM

Compound: HSDAVFTDNYTRLRKQLAAKKYLNDIKNGGT [Peptide R3P24]
EC50 [1]: 45 nM

Further lines, results first:

EC50 [1]: 20 nM
Compound: CC[C@H](C)[C@H](NC(=O)[C@H](CO)NC(=O)[C@H](CC(N)=O)NC(=O)[C@H](CC(C)C)NC(=O)[C@H](Cc1ccc(O)cc1)NC(=O)[C@H](CCCCN)NC(=O)[C@H](CCCCN)NC(=O)[C@H](C)NC(=O)[C@H](C)NC(=O)[C@H](CCSC)NC(=O)[C@H](CCC(N)=O)NC(=O)[C@H](CCCCN)NC(=O)[C@H](CCCNC(=N)N)NC(=O)[C@H](CC(C)C)NC(=O)[C@H](CCCNC(=N)N)NC(=O)[C@@H](NC(=O)[C@H](Cc1ccc(O)cc1)NC(=O)[C@H](CC(N)=O)NC(=O)[C@H](CC(=O)O)NC(=O)[C@@H](NC(=O)[C@H](Cc1ccccc1)NC(=O)[C@@H](NC(=O)[C@H](C)NC(=O)[C@H](CC(=O)O)NC(=O)[C@H](CO)NC(=O)[C@@H](N)Cc1c[nH]cn1)C(C)C)[C@@H](C)O)[C@@H](C)O)C(=O)N[C@@H](CCCCN)C(=O)N[C@@H](CC(N)=O)C(=O)N[C@@H](CCCCN)C(=O)N[C@@H](CC(C)C)C(=O)O [Peptide R3P162]

EC50 [1]: 40 nM
Compound: CC[C@H](C)[C@H](NC(=O)[C@H](CO)NC(=O)[C@H](CC(N)=O)NC(=O)[C@H](CC(C)C)NC(=O)[C@H](Cc1ccc(O)cc1)NC(=O)[C@H](CCCCN)NC(=O)[C@H](CCCCN)NC(=O)[C@H](C)NC(=O)[C@H](C)NC(=O)[C@H](CCSC)NC(=O)[C@H](CCC(N)=O)NC(=O)[C@H](CCCCN)NC(=O)[C@H](CCCNC(=N)N)NC(=O)[C@H](CC(C)C)NC(=O)[C@H](CCCNC(=N)N)NC(=O)[C@@H](NC(=O)[C@H](Cc1ccc(O)cc1)NC(=O)[C@H](CC(N)=O)NC(=O)[C@H](CC(=O)O)NC(=O)[C@@H](NC(=O)[C@H](Cc1ccccc1)NC(=O)[C@@H](NC(=O)[C@H](C)NC(=O)[C@H](CC(=O)O)NC(=O)[C@H](CO)NC(=O)[C@@H](N)Cc1c[nH]cn1)C(C)C)[C@@H](C)O)[C@@H](C)O)C(=O)N[C@@H](CCCCN)C(=O)N[C@@H](CC(N)=O)C(=O)N[C@@H](CCCCN)C(=O)N[C@@H](CCSC)C(=O)O [Peptide R3P163]

EC50 [1]: 50 nM
Compound: CC[C@H](C)[C@H](NC(=O)[C@H](CO)NC(=O)[C@H](CC(N)=O)NC(=O)[C@H](CC(C)C)NC(=O)[C@H](Cc1ccc(O)cc1)NC(=O)[C@H](CCCCN)NC(=O)[C@H](CCCCN)NC(=O)[C@H](C)NC(=O)[C@H](C)NC(=O)[C@H](CCSC)NC(=O)[C@H](CCC(N)=O)NC(=O)[C@H](CCCCN)NC(=O)[C@H](CCCNC(=N)N)NC(=O)[C@H](CC(C)C)NC(=O)[C@H](CCCNC(=N)N)NC(=O)[C@@H](NC(=O)[C@H](Cc1ccc(O)cc1)NC(=O)[C@H](CC(N)=O)NC(=O)[C@H](CC(=O)O)NC(=O)[C@@H](NC(=O)[C@H](Cc1ccccc1)NC(=O)[C@@H](NC(=O)[C@H](C)NC(=O)[C@H](CC(=O)O)NC(=O)[C@H](CO)NC(=O)[C@@H](N)Cc1c[nH]cn1)C(C)C)[C@@H](C)O)[C@@H](C)O)C(=O)N[C@@H](CCCCN)C(=O)N[C@@H](CC(N)=O)C(=O)N[C@@H](CCCCN)C(=O)N[C@@H](CCC(N)=O)C(=O)O [Peptide R3P166]

EC50 [1]: 300 nM
Compound: CC[C@H](C)[C@H](NC(=O)[C@H](CO)NC(=O)[C@H](CC(N)=O)NC(=O)[C@H](CC(C)C)NC(=O)[C@H](Cc1ccc(O)cc1)NC(=O)[C@H](CCCCN)NC(=O)[C@H](CCCCN)NC(=O)[C@H](C)NC(=O)[C@H](C)NC(=O)[C@H](CCSC)NC(=O)[C@H](CCC(N)=O)NC(=O)[C@H](CCCCN)NC(=O)[C@H](CCCNC(=N)N)NC(=O)[C@H](CC(C)C)NC(=O)[C@H](CCCNC(=N)N)NC(=O)[C@@H](NC(=O)[C@H](Cc1ccc(O)cc1)NC(=O)[C@H](CC(N)=O)NC(=O)[C@H](CC(=O)O)NC(=O)[C@@H](NC(=O)[C@H](Cc1ccccc1)NC(=O)[C@@H](NC(=O)[C@H](C)NC(=O)[C@H](CC(=O)O)NC(=O)[C@H](CO)NC(=O)[C@@H](N)Cc1c[nH]cn1)C(C)C)[C@@H](C)O)[C@@H](C)O)C(=O)N[C@@H](CCCCN)C(=O)N[C@@H](CC(N)=O)C(=O)N[C@@H](CCCCN)C(=O)N[C@@H](CO)C(=O)O [Peptide R3P167]

EC50 [1]: 80 nM
Compound: CC[C@H](C)[C@H](NC(=O)[C@H](CO)NC(=O)[C@H](CC(N)=O)NC(=O)[C@H](CC(C)C)NC(=O)[C@H](Cc1ccc(O)cc1)NC(=O)[C@H](CCCCN)NC(=O)[C@H](CCCCN)NC(=O)[C@H](C)NC(=O)[C@H](C)NC(=O)[C@H](CCSC)NC(=O)[C@H](CCC(N)=O)NC(=O)[C@H](CCCCN)NC(=O)[C@H](CCCNC(=N)N)NC(=O)[C@H](CC(C)C)NC(=O)[C@H](CCCNC(=N)N)NC(=O)[C@@H](NC(=O)[C@H](Cc1ccc(O)cc1)NC(=O)[C@H](CC(N)=O)NC(=O)[C@H](CC(=O)O)NC(=O)[C@@H](NC(=O)[C@H](Cc1ccccc1)NC(=O)[C@@H](NC(=O)[C@H](C)NC(=O)[C@H](CC(=O)O)NC(=O)[C@H](CO)NC(=O)[C@@H](N)Cc1c[nH]cn1)C(C)C)[C@@H](C)O)[C@@H](C)O)C(=O)N[C@@H](CCCCN)C(=O)N[C@@H](CC(N)=O)C(=O)N[C@@H](CCCCN)C(=O)N[C@@H](Cc1ccc(O)cc1)C(=O)O [Peptide R3P171]
